{
  "source": "ChEMBL document CHEMBL1146665",
  "about": "(Bioorg Med Chem Lett, 2004)",
  "key": {"[1]": {"molecular_target": "Melatonin receptor type 1A (Homo sapiens, UniProt P48039)", "sequence (P48039 whole entry)": "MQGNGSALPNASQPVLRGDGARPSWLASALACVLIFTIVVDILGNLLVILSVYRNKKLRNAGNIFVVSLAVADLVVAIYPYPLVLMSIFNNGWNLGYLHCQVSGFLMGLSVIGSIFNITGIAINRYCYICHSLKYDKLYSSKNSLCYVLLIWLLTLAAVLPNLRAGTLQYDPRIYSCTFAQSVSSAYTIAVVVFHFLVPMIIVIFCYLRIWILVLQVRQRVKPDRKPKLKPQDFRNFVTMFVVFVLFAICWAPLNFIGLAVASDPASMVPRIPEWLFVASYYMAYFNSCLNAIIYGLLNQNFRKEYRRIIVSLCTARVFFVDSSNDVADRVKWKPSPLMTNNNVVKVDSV", "assay": "Binding affinity towards human melatonin receptor type 1A"}, "[2]": {"molecular_target": "T1, Melatonin receptor type 1B (Homo sapiens, UniProt P49286)", "T1 sequence (P49286 whole entry)": "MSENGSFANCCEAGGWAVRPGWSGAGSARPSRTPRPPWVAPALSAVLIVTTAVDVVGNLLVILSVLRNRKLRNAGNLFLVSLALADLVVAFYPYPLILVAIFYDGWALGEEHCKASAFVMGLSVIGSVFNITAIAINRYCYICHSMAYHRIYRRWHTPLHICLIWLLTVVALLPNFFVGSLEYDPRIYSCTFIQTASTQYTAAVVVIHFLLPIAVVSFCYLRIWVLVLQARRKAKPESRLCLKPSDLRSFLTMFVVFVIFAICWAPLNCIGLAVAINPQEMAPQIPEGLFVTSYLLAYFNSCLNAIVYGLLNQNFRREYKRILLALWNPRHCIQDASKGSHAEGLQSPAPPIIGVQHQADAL", "assay": "Binding affinity towards human melatonin receptor type 1B"}, "NIH3T3": {"system": "NIH3T3", "assay": "Inhibition of forskolin-stimulated cAMP accumulation in NIH3T3 cells expressing MT2 receptor", "assay_type": "functional, cell-based", "settings": "Mus musculus"}},
  "data": [
    {"smiles": "CCCC(=O)Nc1ccc(N(C)c2cccc(OC)c2)cc1", "values": [
      {"measurement": "Ki", "setting": "[1]", "value": 1.1, "unit": "nM"},
      {"measurement": "Ki", "setting": "[2]", "value": 0.1, "unit": "nM"}
    ]},
    {"smiles": "CCC(=O)Nc1ccc(Oc2cccc(OC)c2)cc1", "values": [
      {"measurement": "Ki", "setting": "[1]", "value": 300, "unit": "nM"},
      {"measurement": "Ki", "setting": "[2]", "value": 6.8, "unit": "nM"}
    ]},
    {"smiles": "COc1cccc(Nc2ccc(NC(C)=O)cc2)c1", "values": [
      {"measurement": "Ki", "setting": "[1]", "value": 84, "unit": "nM"},
      {"measurement": "Ki", "setting": "[2]", "value": 4.2, "unit": "nM"}
    ]},
    {"smiles": "CCCC(=O)Nc1ccc(Oc2ccccc2OC)cc1", "values": [
      {"measurement": "Ki", "setting": "[1]", "value": "> 500", "unit": "nM"},
      {"measurement": "Ki", "setting": "[2]", "value": 108, "unit": "nM"}
    ]},
    {"smiles": "CCCC(=O)Nc1cccc(Oc2cccc(OC)c2)c1", "values": [
      {"measurement": "Ki", "setting": "[1]", "value": "> 500", "unit": "nM"},
      {"measurement": "Ki", "setting": "[2]", "value": 26.8, "unit": "nM"}
    ]},
    {"smiles": "CCC(=O)Nc1ccc(Nc2cccc(OC)c2)cc1", "values": [
      {"measurement": "Ki", "setting": "[1]", "value": 61, "unit": "nM"},
      {"measurement": "Ki", "setting": "[2]", "value": 1.8, "unit": "nM"}
    ]},
    {"smiles": "CCCC(=O)Nc1ccc(Nc2cccc(OC)c2)cc1", "values": [
      {"measurement": "Ki", "setting": "[1]", "value": 31, "unit": "nM"},
      {"measurement": "Ki", "setting": "[2]", "value": 0.39, "unit": "nM"}
    ]},
    {"smiles": "CCOC(=O)Nc1ccc(N(C)c2cccc(OC)c2)cc1", "values": [
      {"measurement": "Ki", "setting": "[1]", "value": 34, "unit": "nM"},
      {"measurement": "Ki", "setting": "[2]", "value": 7.2, "unit": "nM"}
    ]},
    {"smiles": "C/C=C/C(=O)Nc1ccc(Oc2cccc(OC)c2)cc1", "values": [
      {"measurement": "Ki", "setting": "[1]", "value": 98, "unit": "nM"},
      {"measurement": "Ki", "setting": "[2]", "value": 2.1, "unit": "nM"}
    ]},
    {"smiles": "COc1cccc(N(C)c2ccc(NC(=O)C3CC3)cc2)c1", "values": [
      {"measurement": "Ki", "setting": "[1]", "value": 12, "unit": "nM"},
      {"measurement": "Ki", "setting": "[2]", "value": 4.8, "unit": "nM"}
    ]},
    {"smiles": "CCCC(=O)Nc1ccc(Oc2cccc(OC)c2)cc1", "values": [
      {"measurement": "EC50", "setting": "NIH3T3", "value": 1.07, "unit": "nM"},
      {"measurement": "Ki", "setting": "[1]", "value": 63, "unit": "nM"},
      {"measurement": "Ki", "setting": "[2]", "value": 0.75, "unit": "nM"}
    ]},
    {"smiles": "CCCC(=O)Nc1ccc(S(=O)(=O)c2cccc(OC)c2)cc1", "values": [
      {"measurement": "Ki", "setting": "[1]", "value": "> 500", "unit": "nM"},
      {"measurement": "Ki", "setting": "[2]", "value": 10, "unit": "nM"}
    ]},
    {"smiles": "CCCCC(=O)Nc1ccc(Oc2cccc(OC)c2)cc1", "values": [
      {"measurement": "Ki", "setting": "[1]", "value": "> 500", "unit": "nM"}
    ]},
    {"smiles": "COCC(=O)Nc1ccc(Oc2cccc(OC)c2)cc1", "values": [
      {"measurement": "Ki", "setting": "[1]", "value": 180, "unit": "nM"},
      {"measurement": "Ki", "setting": "[2]", "value": 5.9, "unit": "nM"}
    ]},
    {"smiles": "COc1cccc(Oc2ccc(NC(=O)C3CC3)cc2)c1", "values": [
      {"measurement": "Ki", "setting": "[1]", "value": 99, "unit": "nM"},
      {"measurement": "Ki", "setting": "[2]", "value": 13, "unit": "nM"}
    ]},
    {"smiles": "CCCC(=O)Nc1ccc(Oc2cccc3c2CCO3)cc1", "values": [
      {"measurement": "Ki", "setting": "[1]", "value": 18, "unit": "nM"},
      {"measurement": "Ki", "setting": "[2]", "value": 0.68, "unit": "nM"}
    ]},
    {"smiles": "COc1cccc(Oc2ccc(NC(=O)C(C)C)cc2)c1", "values": [
      {"measurement": "Ki", "setting": "[1]", "value": "> 500", "unit": "nM"},
      {"measurement": "Ki", "setting": "[2]", "value": 122, "unit": "nM"}
    ]},
    {"smiles": "COc1cccc(Oc2ccc(NC(=O)CC(C)C)cc2)c1", "values": [
      {"measurement": "Ki", "setting": "[1]", "value": "> 500", "unit": "nM"},
      {"measurement": "Ki", "setting": "[2]", "value": 15, "unit": "nM"}
    ]},
    {"smiles": "COc1cccc(Nc2ccc(NC(=O)C3CC3)cc2)c1", "values": [
      {"measurement": "Ki", "setting": "[1]", "value": 61, "unit": "nM"},
      {"measurement": "Ki", "setting": "[2]", "value": 64, "unit": "nM"}
    ]},
    {"smiles": "CCCC(=O)Nc1ccc(Sc2cccc(OC)c2)cc1", "values": [
      {"measurement": "Ki", "setting": "[1]", "value": 29, "unit": "nM"},
      {"measurement": "Ki", "setting": "[2]", "value": 0.19, "unit": "nM"}
    ]},
    {"smiles": "CCNC(=O)Nc1ccc(Oc2cccc(OC)c2)cc1", "values": [
      {"measurement": "Ki", "setting": "[1]", "value": "> 500", "unit": "nM"},
      {"measurement": "Ki", "setting": "[2]", "value": 250, "unit": "nM"}
    ]},
    {"smiles": "CCCC(=O)Nc1ccc(N(C)c2cccc3c2CCO3)cc1", "values": [
      {"measurement": "Ki", "setting": "[1]", "value": 36, "unit": "nM"},
      {"measurement": "Ki", "setting": "[2]", "value": 0.49, "unit": "nM"}
    ]},
    {"smiles": "CCC(=O)Nc1ccc(N(C)c2cccc(OC)c2)cc1", "values": [
      {"measurement": "Ki", "setting": "[1]", "value": 1, "unit": "nM"},
      {"measurement": "Ki", "setting": "[2]", "value": 0.17, "unit": "nM"}
    ]},
    {"smiles": "CCCC(=O)Nc1ccc(Cc2cccc(OC)c2)cc1", "values": [
      {"measurement": "Ki", "setting": "[1]", "value": 10.9, "unit": "nM"},
      {"measurement": "Ki", "setting": "[2]", "value": 0.12, "unit": "nM"}
    ]},
    {"smiles": "COc1cccc(Nc2ccc(NC(=O)C(C)C)cc2)c1", "values": [
      {"measurement": "Ki", "setting": "[1]", "value": "> 500", "unit": "nM"},
      {"measurement": "Ki", "setting": "[2]", "value": 84, "unit": "nM"}
    ]},
    {"smiles": "CCCC(=O)Nc1ccc(Cc2cccc3occc23)cc1", "values": [
      {"measurement": "Ki", "setting": "[1]", "value": 92, "unit": "nM"},
      {"measurement": "Ki", "setting": "[2]", "value": 0.78, "unit": "nM"}
    ]},
    {"smiles": "C#CCC(=O)Nc1ccc(Oc2cccc(OC)c2)cc1", "values": [
      {"measurement": "Ki", "setting": "[1]", "value": "> 500", "unit": "nM"},
      {"measurement": "Ki", "setting": "[2]", "value": 110, "unit": "nM"}
    ]},
    {"smiles": "CCOC(=O)Nc1ccc(Nc2cccc(OC)c2)cc1", "values": [
      {"measurement": "Ki", "setting": "[1]", "value": "> 500", "unit": "nM"},
      {"measurement": "Ki", "setting": "[2]", "value": 150, "unit": "nM"}
    ]},
    {"smiles": "COc1cccc(N(C)c2ccc(NC(=O)C(C)C)cc2)c1", "values": [
      {"measurement": "Ki", "setting": "[1]", "value": 106, "unit": "nM"},
      {"measurement": "Ki", "setting": "[2]", "value": 5.5, "unit": "nM"}
    ]},
    {"smiles": "CCCC(=O)Nc1ccc(Nc2cccc3c2CCO3)cc1", "values": [
      {"measurement": "Ki", "setting": "[1]", "value": "> 500", "unit": "nM"},
      {"measurement": "Ki", "setting": "[2]", "value": 39, "unit": "nM"}
    ]},
    {"smiles": "CCCC(=O)Nc1ccc(Oc2cccc3c2OCCO3)cc1", "values": [
      {"measurement": "Ki", "setting": "[1]", "value": 92, "unit": "nM"},
      {"measurement": "Ki", "setting": "[2]", "value": 4.7, "unit": "nM"}
    ]},
    {"smiles": "COc1cccc(Oc2ccc(NC(C)=O)cc2)c1", "values": [
      {"measurement": "Ki", "setting": "[1]", "value": 84, "unit": "nM"},
      {"measurement": "Ki", "setting": "[2]", "value": 4.1, "unit": "nM"}
    ]},
    {"smiles": "CCCC(=O)Nc1ccc(Oc2ccc(OC)cc2)cc1", "values": [
      {"measurement": "Ki", "setting": "[1]", "value": "> 500", "unit": "nM"},
      {"measurement": "Ki", "setting": "[2]", "value": "> 400", "unit": "nM"}
    ]},
    {"smiles": "COc1cccc(N(C)c2ccc(NC(C)=O)cc2)c1", "values": [
      {"measurement": "Ki", "setting": "[1]", "value": 0.05, "unit": "nM"},
      {"measurement": "Ki", "setting": "[2]", "value": 0.23, "unit": "nM"}
    ]},
    {"smiles": "CCCC(=O)Nc1ccc(Cc2cccc3c2CCO3)cc1", "values": [
      {"measurement": "Ki", "setting": "[1]", "value": 41, "unit": "nM"},
      {"measurement": "Ki", "setting": "[2]", "value": 0.71, "unit": "nM"}
    ]},
    {"smiles": "CCCC(=O)Nc1ccc(C(=O)c2cccc(OC)c2)cc1", "values": [
      {"measurement": "Ki", "setting": "[1]", "value": "> 500", "unit": "nM"},
      {"measurement": "Ki", "setting": "[2]", "value": 33, "unit": "nM"}
    ]},
    {"smiles": "CCCC(=O)Nc1ccccc1Oc1cccc(OC)c1", "values": [
      {"measurement": "Ki", "setting": "[1]", "value": "> 500", "unit": "nM"},
      {"measurement": "Ki", "setting": "[2]", "value": 130, "unit": "nM"}
    ]}
  ]
}
